Columns and labels:
[1] = Solubility Screening of CHG in vehicles, Vacuum Method
Method: Solubility Screening. Screening tests were conducted to determine the solubility of CHG in a wide variety of vehicles. Tests were conducted using the Vacuum Method and the Lyophilizing Method.
Vacuum Method. […] The flask was put in a 60° C. oil bath and stirred with a magnetic stir bar. […] In those cases, after nearly all the water was removed, additional vehicle was added to bring the final weight to 50 grams. The resulting concentration of CHG and residual water were determined. Also, the final state of the solution was qualitatively evaluated to determine if the mixture was transparent and apparently homogenous, or clearly inhomogeneous.

[2] = Solubility of lyophilized CHG in vehicles, Lyophilization Method; conditions: 0.2 wt. % lyophilized CHG
Method: The Lyophilization Method. Lyophilized CHG was prepared by freeze-drying the aqueous CHG solution (20 wt. % solution in water, obtained from Xttrium Laboratories Inc., Chicago, Ill.).
For lower viscosity vehicles, a 5 ml sample of the non-aqueous vehicle of interest was measured into a glass vial. For higher viscosity vehicles that were difficult to transfer by volume, a 5 gm sample was weighed into the vial. Next, 0.01 g of lyophilized CHG was added to the vial. The sample was capped and mixed by shaking for 30 seconds. The sample was immediately observed and then observed again after 2 minutes and again after 24 hours. After 24 hours, the sample was placed in a 50° C. oven for 2 hours and then removed and immediately observed. These samples were allowed to cool to room temperature and a final observation was made.
CHG solutions. The solutions containing CHG were either a 20 wt. % aqueous solution of CHG or a 10-20% w/w solution of CHG in a non-aqueous vehicle. The non-aqueous solutions were prepared by freeze drying the aqueous CHG solution to produce lyophilized CHG. Finely divided, lyophilized CHG was then solubilized in a non-aqueous vehicle at room temperature with continuous stirring for eight hours.

PPG-5 Ceteth-20
Final State [1]: Inhomogeneous | Apparent solubility 2 minutes ([2]; after 2 minutes): no | Apparent solubility 2 hours 50° C. ([2]; after 2 hours in 50° C. oven): soluble | Apparent solubility >24 hours ([2]; after 24 hours): partial | Apparent solubility after cooling ([2]; after cooling to room temperature): soluble | Apparent solubility immediate ([2]; observed immediately after mixing): no

From patent US10456509B2, “Chlorhexidine gluconate compositions, resin systems and articles” (3M INNOVATIVE PROPERTIES COMPANY, priority 2012, dated 2019)
